Data taken from patent EP4759807A1, “PROTEOLYSIS TARGETING CHIMERA COMPOUND FOR DEGRADING IRAK4 AND USE THEREOF” (Shenzhen Zhongge Biological Technology Co., Ltd., priority 2023, dated 2025).

Experiments:
[1] = target: T1, IRAK4 (Homo sapiens, UniProt Q9NWZ3); experiment: WB detection of proteolysis (Western Blot, THP-1 cells); assay type: cell-based; conditions: Western Blot, THP-1 cells, 24 h
T1 sequence (Q9NWZ3 1-460): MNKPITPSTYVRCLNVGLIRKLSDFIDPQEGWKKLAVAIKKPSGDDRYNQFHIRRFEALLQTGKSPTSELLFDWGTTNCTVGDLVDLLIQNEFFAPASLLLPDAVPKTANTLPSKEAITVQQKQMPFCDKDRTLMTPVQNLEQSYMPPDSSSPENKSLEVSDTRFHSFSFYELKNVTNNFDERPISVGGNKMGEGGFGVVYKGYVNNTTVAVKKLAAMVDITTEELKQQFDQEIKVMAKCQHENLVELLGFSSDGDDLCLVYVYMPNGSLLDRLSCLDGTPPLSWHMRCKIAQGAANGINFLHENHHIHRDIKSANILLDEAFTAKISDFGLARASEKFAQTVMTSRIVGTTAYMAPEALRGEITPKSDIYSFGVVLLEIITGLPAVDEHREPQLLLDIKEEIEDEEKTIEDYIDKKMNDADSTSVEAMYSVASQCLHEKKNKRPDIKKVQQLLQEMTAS
Summary of the method: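 IRAK4 level in RIPA lysates read by Western blot with Odyssey imaging; values from bell-shaped non-linear fit with two four-parameter sections (Plateau1, Plateau2, Dip, LogEC50_1/2, nH1/2).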

[2] = target: T1, IRAK4; experiment: Hibit fluorescence detection of proteolysis (IRAK4-HiBiT in HEK293T cells); assay type: cell-based; parameters: host or cells: HEK293T (ATCC)
Summary of the method: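 Degradation read-out: luminescence from lytic HiBiT detection (15 min, room temperature) after 24 h compound exposure (37 °C, 5% CO2) of HEK293T cells transiently expressing IRAK4 fused to a HiBiT tag. Data fitted to a bell-shaped four-parameter model giving two EC50 values.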

`Cn1c(=O)n(C2CCC(=O)NC2=O)c2cccc(N3CCC(N4CCN(C[C@H]5CC[C@H](n6cc(-n7cc(-c8cnn9ccc(N%10CCC[C@H](O)C%10)nc89)nn7)c(C(F)F)n6)CC5)CC4)CC3)c21` (stereo partly shown) [Example 146] was tested. Which DC50 ([1]; read-out: DC50) did it give?
Its DC50 is less than 10 nM.

And the Dmax ([1]; read-out: Dmax)?
Its Dmax is greater than 70%.

And the Dmax ([2]; HEK-293T)?
The Dmax was greater than 80%.

And the DC50 ([2]; IRAK4-HiBiT, HEK293T cells, 24 h)?
Its DC50 is less than 0.5 nM.
